Measured values taken from patent publication US20250098679A1, “HERBICIDAL PYRIDONE DERIVATIVES” (SYNGENTA CROP PROTECTION AG, priority 2021, published 2025).

How the values were obtained:
Type in all cases: in vivo
Conditions in all cases: evaluated after 13 days
Setaria faberi (SETFA) [1] = test: Pre-emergence Test, Setaria faberi (SETFA)
[2] = test system: Echinochloa crus-galli (ECHCG); test: Pre-emergence Test, Echinochloa crus-galli (ECHCG)
Zea mays (ZEAMX) [3] = test: Pre-emergence Test, Zea mays (ZEAMX)
[4] = test system: Ipomoea hederacea (IPOHE); test: Pre-emergence Test, Ipomoea hederacea (IPOHE)
[5] = test system: Amaranthus palmeri (AMAPA); test: Pre-emergence Test, Amaranthus palmeri (AMAPA)
[6] = test system: Amaranthus retoflexus (AMARE); test: Pre-emergence Test, Amaranthus retoflexus (AMARE)
Setaria faberi (SETFA) [7] = test: Post-emergence Test, Setaria faberi (SETFA); set-up: key to percentage damage caused to the plant, SETFA (five-point scale): 5=81-100%, 4=61-80%, 3=41-60%, 2=21-40%, 1=0-20% damage
How it was run: (§1)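 Application was a spray of acetone/water (50:50) with 0.5% Tween 20 onto pots of test species sown in standard soil. Unless otherwise stated, the rate was 1000 g/ha. After 13 days under glasshouse conditions (24/16 °C, 65% humidity), injury was scored from 1 (0-20%) to 5 (81-100%).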

[8] = test system: Echinochloa crus-galli (ECHCG); test: Post-emergence Test, Echinochloa crus-galli (ECHCG); set-up: key to percentage damage caused to the plant, ECHCG (five-point scale): 5=81-100%, 4=61-80%, 3=41-60%, 2=21-40%, 1=0-20% damage
How it was run: as §1

Zea mays (ZEAMX) [9] = test: Post-emergence Test, Zea mays (ZEAMX); set-up: key to percentage damage caused to the plant, ZEAMX (five-point scale): 5=81-100%, 4=61-80%, 3=41-60%, 2=21-40%, 1=0-20% damage
How it was run: as §1

[10] = test system: Ipomoea hederacea (IPOHE); test: Post-emergence Test, Ipomoea hederacea (IPOHE); set-up: key to percentage damage caused to the plant, IPOHE (five-point scale): 5=81-100%, 4=61-80%, 3=41-60%, 2=21-40%, 1=0-20% damage
How it was run: as §1

[11] = test system: Amaranthus palmeri (AMAPA); test: Post-emergence Test, Amaranthus palmeri (AMAPA); set-up: key: 5=81-100%, 4=61-80%, 3=41-60%, 2=21-40%, 1=0-20% damage
How it was run: as §1

[12] = test system: Amaranthus retoflexus (AMARE); test: Post-emergence Test, Amaranthus retoflexus (AMARE); set-up: key to percentage damage caused to the plant, AMARE (five-point scale): 5=81-100%, 4=61-80%, 3=41-60%, 2=21-40%, 1=0-20% damage
How it was run: as §1

CCn1c(Cn2ncnc2OC)cc(=O)c(C(=O)O)c1-c1ccc(Cl)c(Cl)c1 [Compound 124, 2-(3,4-dichlorophenyl)-1-ethyl-6-[(5-methoxy-1,2,4-triazol-1-yl)methyl]-4-oxo-pyridine-3-carboxylic acid]
1 (1=0-20%): Pre-emergence Test AMAPA, percentage damage caused to the plant (five-point scale) ([5]; 250 g/Ha (*)) | Pre-emergence Test AMARE, percentage damage caused to the plant (five-point scale) ([6]; 250 g/Ha (*)) | percentage damage caused to the plant, ZEAMX (five-point scale) (Zea mays (ZEAMX) [9]; 250 g/Ha) | percentage damage caused to the plant, AMARE (five-point scale) ([12]; 250 g/Ha)
4 (4=61-80%): percentage damage caused to the plant, ECHCG (five-point scale) ([8]; 250 g/Ha)
0: Pre-emergence Test SETFA, percentage damage caused to the plant (five-point scale) (Setaria faberi (SETFA) [1]; 250 g/Ha (*)) | Pre-emergence Test ECHCG, percentage damage caused to the plant (five-point scale) ([2]; 250 g/Ha (*)) | Pre-emergence Test ZEAMX, percentage damage caused to the plant (five-point scale) (Zea mays (ZEAMX) [3]; 250 g/Ha (*)) | Pre-emergence Test IPOHE, percentage damage caused to the plant (five-point scale) ([4]; 250 g/Ha (*)) | percentage damage caused to the plant, IPOHE (five-point scale) ([10]; 250 g/Ha) | percentage damage caused to the plant, AMAPA (five-point scale) ([11]; 250 g/Ha)
2 (2=21-40%): percentage damage caused to the plant, SETFA (five-point scale) (Setaria faberi (SETFA) [7]; 250 g/Ha)

CCn1c(Cn2ccc(C(F)(F)F)n2)cc(=O)c(C(=O)O)c1-c1cccc(Cl)c1 [Compound 25, 2-(3-chlorophenyl)-1-ethyl-4-oxo-6-[[3-(trifluoromethyl)pyrazol-1-yl]methyl]pyridine-3-carboxylic acid]
5 (5=81-100%): Pre-emergence Test SETFA, percentage damage caused to the plant (five-point scale) (Setaria faberi (SETFA) [1]; 1000 g/ha) | Pre-emergence Test ECHCG, percentage damage caused to the plant (five-point scale) ([2]; 1000 g/ha)
3 (3=41-60%): percentage damage caused to the plant, ECHCG (five-point scale) ([8]; 250 g/Ha) | percentage damage caused to the plant, ZEAMX (five-point scale) (Zea mays (ZEAMX) [9]; 1000 g/ha)
1 (1=0-20%): Pre-emergence Test ZEAMX, percentage damage caused to the plant (five-point scale) (Zea mays (ZEAMX) [3]; 1000 g/ha) | Pre-emergence Test IPOHE, percentage damage caused to the plant (five-point scale) ([4]; 1000 g/ha)
4 (4=61-80%): percentage damage caused to the plant, SETFA (five-point scale) (Setaria faberi (SETFA) [7]; 250 g/Ha) | percentage damage caused to the plant, SETFA (five-point scale) (Setaria faberi (SETFA) [7]; 1000 g/ha) | percentage damage caused to the plant, ECHCG (five-point scale) ([8]; 1000 g/ha) | percentage damage caused to the plant, IPOHE (five-point scale) ([10]; 250 g/Ha) | percentage damage caused to the plant, IPOHE (five-point scale) ([10]; 1000 g/ha)
0: percentage damage caused to the plant, ZEAMX (five-point scale) (Zea mays (ZEAMX) [9]; 250 g/Ha)
2 (2=21-40%): Pre-emergence Test AMAPA, percentage damage caused to the plant (five-point scale) ([5]; 1000 g/ha) | Pre-emergence Test AMARE, percentage damage caused to the plant (five-point scale) ([6]; 1000 g/ha) | percentage damage caused to the plant, AMAPA (five-point scale) ([11]; 250 g/Ha) | percentage damage caused to the plant, AMAPA (five-point scale) ([11]; 1000 g/ha) | percentage damage caused to the plant, AMARE (five-point scale) ([12]; 250 g/Ha) | percentage damage caused to the plant, AMARE (five-point scale) ([12]; 1000 g/ha)

CCn1c(Cn2ccc(C(F)(F)F)n2)cc(=O)c(C(=O)OC)c1-c1ccc(Cl)cc1 [Compound 22, methyl 2-(4-chlorophenyl)-1-ethyl-4-oxo-6-[[3-(trifluoromethyl)pyrazol-1-yl]methyl]pyridine-3-carboxylate]
1 (1=0-20%): Pre-emergence Test ECHCG, percentage damage caused to the plant (five-point scale) ([2]; 250 g/Ha (*)) | percentage damage caused to the plant, ZEAMX (five-point scale) (Zea mays (ZEAMX) [9]; 1000 g/ha) | percentage damage caused to the plant, IPOHE (five-point scale) ([10]; 250 g/Ha) | percentage damage caused to the plant, AMAPA (five-point scale) ([11]; 250 g/Ha) | percentage damage caused to the plant, AMAPA (five-point scale) ([11]; 1000 g/ha) | percentage damage caused to the plant, AMARE (five-point scale) ([12]; 250 g/Ha) | percentage damage caused to the plant, AMARE (five-point scale) ([12]; 1000 g/ha)
4 (4=61-80%): Pre-emergence Test SETFA, percentage damage caused to the plant (five-point scale) (Setaria faberi (SETFA) [1]; 250 g/Ha (*)) | Pre-emergence Test SETFA, percentage damage caused to the plant (five-point scale) (Setaria faberi (SETFA) [1]; 1000 g/ha)
3 (3=41-60%): Pre-emergence Test ECHCG, percentage damage caused to the plant (five-point scale) ([2]; 1000 g/ha) | percentage damage caused to the plant, SETFA (five-point scale) (Setaria faberi (SETFA) [7]; 250 g/Ha) | percentage damage caused to the plant, SETFA (five-point scale) (Setaria faberi (SETFA) [7]; 1000 g/ha) | percentage damage caused to the plant, ECHCG (five-point scale) ([8]; 1000 g/ha)
2 (2=21-40%): percentage damage caused to the plant, IPOHE (five-point scale) ([10]; 1000 g/ha)
0: Pre-emergence Test ZEAMX, percentage damage caused to the plant (five-point scale) (Zea mays (ZEAMX) [3]; 250 g/Ha (*)) | Pre-emergence Test ZEAMX, percentage damage caused to the plant (five-point scale) (Zea mays (ZEAMX) [3]; 1000 g/ha) | Pre-emergence Test IPOHE, percentage damage caused to the plant (five-point scale) ([4]; 250 g/Ha (*)) | Pre-emergence Test IPOHE, percentage damage caused to the plant (five-point scale) ([4]; 1000 g/ha) | Pre-emergence Test AMAPA, percentage damage caused to the plant (five-point scale) ([5]; 250 g/Ha (*)) | Pre-emergence Test AMAPA, percentage damage caused to the plant (five-point scale) ([5]; 1000 g/ha) | Pre-emergence Test AMARE, percentage damage caused to the plant (five-point scale) ([6]; 250 g/Ha (*)) | Pre-emergence Test AMARE, percentage damage caused to the plant (five-point scale) ([6]; 1000 g/ha) | percentage damage caused to the plant, ECHCG (five-point scale) ([8]; 250 g/Ha) | percentage damage caused to the plant, ZEAMX (five-point scale) (Zea mays (ZEAMX) [9]; 250 g/Ha)
